Columns and labels:
[1] = molecular target: T1, butyrylcholinesterase (BChE) (Rattus norvegicus, UniProt Q9JKC1); experiment: biochemical
T1 construct: from tissue; host or cells: rat serum

rat cortical neurons = experiment: NMDA survival assay (LDH release) in cortical neurons; assay type: cell-based; details: DIV11 rat cortical neurons, NMDA 20 μM, compound 0.001-10 μg/mL, LDH at 24 hr; FIG. 3
Experimental: The compounds were subjected to NMDA survival assays to investigate their ability to prevent NMDA receptor-induced excitotoxicity. The NMDA survival assay was performed to measure the degree of protection provided to cortical neuronal cells when treated with the compounds prior to an ischemic insult.
DIV10 cortical neurons were treated with NMDA (20 μM) in the presence of compound (cpd) B or C (μg/mL). LDH release in the medium was detected at 24 hr after treatment. DMSO was used as the solvent control, while MK-801 (10 μM) is a known NMDA antagonist.
DIV11 rat cortical neurons were treated with NMDA (20 μM) in the absence or presence of compounds (MK-801, 10 μM; compound A, 0.001-10 μg/mL). LDH release in the medium was detected at 24 hr after treatment. DMSO was used as the solvent control.

transient focal ischemia = experiment: MCAO (middle carotid artery occlusion model), transient focal ischemia; assay type: in vivo, mice
Experimental: The MCAO (middle carotid artery occlusion model) was performed to investigate the protective effects of compounds A, B and C on the brain when the brain was exposed to transient focal ischemia (lack of oxygen), emulating brain conditions during a stroke. […] The ability of the novel compounds to protect against the appearance of these neurological deficits was examined using a four-point scale neurological scoring system (Mann Whitney U test). For each of the following observable signs, the distribution of test subjects was noted (with and without treatment with the invention after ischemia): (0) no observable neurological deficits (normal); (1) failure to extend the left forepaw fully (mild); (2) circling to the contralateral side (moderate); and (3) loss of walking and righting reflex (severe). • (ii) The brains of the test subjects slices were sectioned into five pieces and the infarct area and volume of each slice was measured. The % of infarct area in test subjects treated with the invention after ischemia was compared to that of the control group for each brain slice. • (iii) Hemispheric brain swelling and infarct volume (the area of dead tissue caused by inadequate blood supply) was measured for test subjects treated with the invention after ischemia, and compared to that of the control group.
The compounds were administered 5 minutes after ischemia, 5 minutes after reperfusion, or 6 hours after ischemia. FIGS. 5a to 5f show results for the heterodimers compound B, C or A respectively, when administered 5 minutes after ischemia or reperfusion. FIGS. 5g and 5h show the results when the novel heterodimers were administered 6 hours after ischemia.
Compound B was administered at 5 minutes after ischemia. Distribution of neurological scores based on a four-point scale neurological scoring system (Mann Whitney U test): (0) no observable neurological deficits (normal); (1) failure to extend the left forepaw fully (mild); (2) circling to the contralateral side (moderate); and (3) loss of walking and righting reflex (severe).
The brain was sectioned into five pieces, each 2-mm thick. The infarct area of each posterior surface was analyzed by an image analysis program. The percentage of infarct area and volume were calculated and presented as the percentage of the infarct area of the contralateral hemisphere to eliminate the contribution of edema to the ischemic lesion.
The infarct area of each posterior surface was analyzed by an image analysis program. Hemispheric brain swelling was calculated as follows (ipsilateral volume−contralateral volume)/contralateral volume×100%.

[2] = 0.005 mg/kg, 5 minutes after ischemia
[3] = 0.05 mg/kg, 5 minutes after ischemia
[4] = 0.1 mg/kg, 5 minutes after ischemia
[5] = 0.2 mg/kg, 5 minutes after ischemia

T1 sequence (Q9JKC1 24-597): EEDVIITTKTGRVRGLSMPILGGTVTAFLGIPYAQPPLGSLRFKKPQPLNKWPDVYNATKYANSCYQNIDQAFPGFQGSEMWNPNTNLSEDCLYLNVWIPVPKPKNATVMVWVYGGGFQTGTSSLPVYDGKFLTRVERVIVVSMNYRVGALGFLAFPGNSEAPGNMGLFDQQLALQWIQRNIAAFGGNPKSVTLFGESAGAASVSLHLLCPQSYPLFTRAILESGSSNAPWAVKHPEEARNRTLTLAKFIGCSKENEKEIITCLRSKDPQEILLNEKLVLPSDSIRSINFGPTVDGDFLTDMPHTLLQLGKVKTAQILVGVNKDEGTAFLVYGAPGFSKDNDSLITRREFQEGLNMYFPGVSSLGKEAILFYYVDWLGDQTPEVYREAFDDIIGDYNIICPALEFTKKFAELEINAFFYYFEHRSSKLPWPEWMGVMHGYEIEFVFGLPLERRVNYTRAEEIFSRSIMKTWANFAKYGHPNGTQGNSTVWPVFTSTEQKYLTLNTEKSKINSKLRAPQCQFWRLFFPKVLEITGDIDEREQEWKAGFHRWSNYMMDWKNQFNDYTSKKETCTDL

## O=c1ccc2c([nH]1)CCC(NCCCNc1c3c(nc4cc(Cl)ccc14)CCCC3)C2 (stereo not drawn) [Compound A]
[1]
  IC50: 56.7 ± 25 nM
Rat cortical neurons
  protection against NMDA insults (LDH release): capable of protecting cortical neurons against NMDA insults
Transient focal ischemia; [2]
  % Infarct area in brain slice # 1: 2.2 ± 2.0%
  % Infarct area in brain slice # 2: 48.8 ± 4.3%
  % Infarct area in brain slice # 3: 49.3 ± 4.4%
  % Infarct area in brain slice # 4: 26.5 ± 9.3%
  % Infarct area in brain slice # 5: −4.3 ± 0.6%
  Hemispheric swelling (%): 10.3 ± 0.4%
  Infarct volume (%): 31.3 ± 4.3%
  Observed Neurological Deficits Mean ± SEM: 1.6 ± 0.2
  Observed Neurological Deficits, score 0 (number of animals): 0
  Observed Neurological Deficits, score 1 (number of animals): 2
  Observed Neurological Deficits, score 2 (number of animals): 3
  Observed Neurological Deficits, score 3 (number of animals): 0
  n (dead/total): dead/total: 5 (5/10)
Transient focal ischemia; [3]
  % Infarct area in brain slice # 1: −0.4 ± 2.2%
  % Infarct area in brain slice # 2: 39.1 ± 2.4 %
  % Infarct area in brain slice # 3: 44.5 ± 0.9 %
  % Infarct area in brain slice # 4: 17.1 ± 3.2 %
  % Infarct area in brain slice # 5: −6.3 ± 2.8%
  Hemispheric swelling (%): 15.5 ± 1.1%
  Infarct volume (%): 24.8 ± 1.1 %
  Observed Neurological Deficits Mean ± SEM: 1.2 ± 0.2
  Observed Neurological Deficits, score 0 (number of animals): 0
  Observed Neurological Deficits, score 1 (number of animals): 5
  Observed Neurological Deficits, score 2 (number of animals): 1
  Observed Neurological Deficits, score 3 (number of animals): 0
  n (dead/total): dead/total: 6 (1/7)
Transient focal ischemia; [4]
  % Infarct area in brain slice # 1: 2.0 ± 1.8%
  % Infarct area in brain slice # 2: 49.5 ± 2.0 %
  % Infarct area in brain slice # 3: 48.4 ± 1.8 %
  % Infarct area in brain slice # 4: 10.4 ± 3.3 %
  % Infarct area in brain slice # 5: −9.9 ± 1.7%
  Hemispheric swelling (%): 12.5 ± 1.1%
  Infarct volume (%): 26.5 ± 1.4 %
  Observed Neurological Deficits Mean ± SEM: 1.2 ± 0.1
  Observed Neurological Deficits, score 0 (number of animals): 0
  Observed Neurological Deficits, score 1 (number of animals): 7
  Observed Neurological Deficits, score 2 (number of animals): 2
  Observed Neurological Deficits, score 3 (number of animals): 0
  n (dead/total): dead/total: 9 (4/13)
Transient focal ischemia; [5]
  % Infarct area in brain slice # 1: 1.3 ± 0.7%
  % Infarct area in brain slice # 2: 44.7 ± 6.6%
  % Infarct area in brain slice # 3: 49.0 ± 3.8%
  % Infarct area in brain slice # 4: 37.3 ± 3.8%
  % Infarct area in brain slice # 5: −3.3 ± 1.6%
  Hemispheric swelling (%): 15.2 ± 1.2%
  Infarct volume (%): 33.8 ± 1.6%
  Observed Neurological Deficits Mean ± SEM: 1.9 ± 0.7
  Observed Neurological Deficits, score 0 (number of animals): 0
  Observed Neurological Deficits, score 1 (number of animals): 2
  Observed Neurological Deficits, score 2 (number of animals): 4
  Observed Neurological Deficits, score 3 (number of animals): 1
  n (dead/total): dead/total: 7 (4/11)
Transient focal ischemia; 0.05 and 0.1 mg/kg, 5 minutes after ischemia, FIG. 5e
  infarct area (in words): improvement in the infarct area
Transient focal ischemia; 5 minutes after ischemia (compound A: 0.05 and 0.1 mg/kg), FIG. 5b, 5f
  infarct volume and hemispheric swelling (in words): decreases infarct volume but not hemispheric swelling
Transient focal ischemia; administered 5 minutes after ischemia
  neurological deficits induced by ischemia (in words): reduced neurological deficits induced by ischemia
